Experimental data from ChEMBL document CHEMBL1201862, “PubChem BioAssay data set” (2004).
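Method: 48-hour compound exposure of cells in 96-well plates, five concentrations, linear interpolation of endpoints. At the GI50, growth is halved.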 Active and inactive are the calls of the source. No stated cut-off is given here; in the data, active = GI50 up to about 1.1 µM and inactive = higher.

Columns and labels:
Test in all cases: inhibition of tumour cell growth, NCI panel, 48 h
ACHN = test system: ACHN
OVCAR-8 = test system: OVCAR-8
NCI-H23 = test system: NCI-H23
TK-10 = test system: TK-10
SNB-75 = test system: SNB-75
SK-MEL-28 = test system: SK-MEL-28
NCI/ADR-RES = test system: NCI/ADR-RES
SK-OV-3 = test system: SK-OV-3
SF-295 = test system: SF-295
UO-31 = test system: UO-31
HOP-92 = test system: HOP-92
NCI-H522 = test system: NCI-H522
UACC-62 = test system: UACC-62
SK-MEL-2 = test system: SK-MEL-2
PC-3 = test system: PC-3
OVCAR-3 = test system: OVCAR-3
OVCAR-4 = test system: OVCAR-4
UACC-257 = test system: UACC-257
SNB-19 = test system: SNB-19
K562 = test system: K562

Measured: GI50

CC1(C)CC(=O)C(=CNC(=S)c2ccccc2)C(=O)C1
inactive: ACHN > 100 µM | OVCAR-8 > 100 µM | NCI-H23 > 100 µM | TK-10 > 100 µM | SNB-75 > 100 µM | SK-MEL-28 > 100 µM | NCI/ADR-RES > 100 µM | SK-OV-3 > 100 µM | SF-295 > 100 µM | UO-31 > 100 µM | HOP-92 > 100 µM | NCI-H522 > 100 µM | UACC-62 > 100 µM | SK-MEL-2 > 100 µM | PC-3 > 100 µM | OVCAR-3 > 100 µM | OVCAR-4 > 100 µM | UACC-257 > 100 µM | SNB-19 > 100 µM

C=CC(Br)(CBr)CCC1OC1(C)C (centres undefined)
inactive: ACHN 18.2 µM | NCI-H23 16.3 µM | TK-10 20.2 µM | SNB-75 17.2 µM | SK-MEL-28 16.3 µM | NCI/ADR-RES 23.5 µM | SK-OV-3 24.7 µM | SF-295 16.4 µM | UO-31 18.2 µM | HOP-92 14.4 µM | NCI-H522 17.2 µM | SK-MEL-2 15.1 µM | K562 37.9 µM | PC-3 16.5 µM | OVCAR-3 19.5 µM | OVCAR-4 16.3 µM | UACC-257 14.6 µM | SNB-19 17.3 µM

CNC(=O)OCC1=C(COC(=O)NC)CN(c2ccccc2)C1
inactive: ACHN > 100 µM | OVCAR-8 > 100 µM | NCI-H23 > 100 µM | TK-10 > 100 µM | SNB-75 > 100 µM | SK-MEL-28 > 100 µM | NCI/ADR-RES > 100 µM | SK-OV-3 > 100 µM | SF-295 > 100 µM | UO-31 > 100 µM | HOP-92 > 100 µM | UACC-62 > 100 µM | SK-MEL-2 > 100 µM | K562 > 100 µM | PC-3 > 100 µM | OVCAR-3 > 100 µM | OVCAR-4 > 100 µM | UACC-257 > 100 µM | SNB-19 > 100 µM

OCC(O)COCn1cc(Cn2ncc3c(NCc4ccccc4)ncnc32)nn1 (centres undefined)
inactive: ACHN > 100 µM | OVCAR-8 > 100 µM | NCI-H23 > 100 µM | TK-10 > 100 µM | SK-MEL-28 > 100 µM | NCI/ADR-RES > 100 µM | SK-OV-3 > 100 µM | SF-295 > 100 µM | UO-31 > 100 µM | HOP-92 > 100 µM | NCI-H522 18.7 µM | UACC-62 > 100 µM | SK-MEL-2 > 100 µM | PC-3 > 100 µM | OVCAR-3 > 100 µM | OVCAR-4 > 100 µM | UACC-257 > 100 µM | SNB-19 > 100 µM

FC(F)(F)c1ccc(Cc2nc3cc4ccccc4cc3[nH]2)cc1
inactive: ACHN 49 µM | OVCAR-8 > 100 µM | NCI-H23 > 100 µM | TK-10 > 100 µM | SNB-75 3.78 µM | SK-MEL-28 > 100 µM | NCI/ADR-RES > 100 µM | SF-295 > 100 µM | UO-31 58.5 µM | HOP-92 2.11 µM | NCI-H522 26.7 µM | UACC-62 > 100 µM | SK-MEL-2 > 100 µM | K562 32.1 µM | PC-3 > 100 µM | OVCAR-3 57.4 µM | OVCAR-4 31.5 µM | UACC-257 > 100 µM | SNB-19 45.7 µM

Nc1cc(CO)cc(Nc2c3ccccc3nc3occc23)c1
inactive: ACHN 29.8 µM | OVCAR-8 35.7 µM | NCI-H23 28.9 µM | TK-10 52.6 µM | SK-MEL-28 36.4 µM | NCI/ADR-RES 22.4 µM | SK-OV-3 36.5 µM | SF-295 37.7 µM | UO-31 32.2 µM | HOP-92 29.1 µM | NCI-H522 14.4 µM | UACC-62 20.8 µM | SK-MEL-2 23.6 µM | PC-3 64 µM | OVCAR-3 72.4 µM | OVCAR-4 17.1 µM | UACC-257 42.6 µM | SNB-19 > 100 µM

COc1ccc(COCC[C@H](C)OC2OC(CO[Si](C)(C)C(C)(C)C)C(OC(=O)CCCN=[N+]=[N-])C(OC(=O)CCCN=[N+]=[N-])C2OC(=O)CCCN=[N+]=[N-])cc1 (some centres undefined)
inactive: OVCAR-8 19.7 µM | NCI-H23 31.8 µM | TK-10 > 100 µM | SNB-75 14.2 µM | SK-MEL-28 > 100 µM | NCI/ADR-RES 19.1 µM | SK-OV-3 > 100 µM | SF-295 89.3 µM | UO-31 19.9 µM | HOP-92 > 100 µM | NCI-H522 18.7 µM | UACC-62 58.9 µM | SK-MEL-2 > 100 µM | PC-3 28.6 µM | OVCAR-3 61.8 µM | OVCAR-4 27.9 µM | UACC-257 26.5 µM

Cc1cccc2c1CC1(Cc3c(C)cccc3C1=O)C2=O
inactive: ACHN > 100 µM | OVCAR-8 > 100 µM | NCI-H23 > 100 µM | TK-10 > 100 µM | SNB-75 > 100 µM | SK-MEL-28 > 100 µM | NCI/ADR-RES > 100 µM | SK-OV-3 > 100 µM | SF-295 > 100 µM | UO-31 > 100 µM | HOP-92 > 100 µM | NCI-H522 > 100 µM | SK-MEL-2 > 100 µM | K562 > 100 µM | PC-3 > 100 µM | OVCAR-3 > 100 µM | OVCAR-4 > 100 µM | UACC-257 > 100 µM | SNB-19 > 100 µM

CCOC(=O)c1c(C)n(-c2ccc(C)cc2)c(=O)c2ccccc2c(=O)c2c(=O)ccc(=O)c1=2
inactive: ACHN 13.4 µM | OVCAR-8 16.2 µM | NCI-H23 15.5 µM | TK-10 15.5 µM | SNB-75 23.3 µM | SK-MEL-28 12.2 µM | NCI/ADR-RES 18.5 µM | SK-OV-3 27 µM | UO-31 23.4 µM | HOP-92 16.2 µM | NCI-H522 18.3 µM | UACC-62 19.6 µM | SK-MEL-2 27 µM | K562 15.2 µM | PC-3 17.1 µM | OVCAR-3 16.2 µM | OVCAR-4 21.4 µM | UACC-257 18.5 µM | SNB-19 32.2 µM

O=C(NCCCl)Nc1ccccc1
inactive: ACHN > 100 µM | OVCAR-8 > 100 µM | NCI-H23 > 100 µM | SNB-75 > 100 µM | SK-MEL-28 > 100 µM | NCI/ADR-RES > 100 µM | SK-OV-3 > 100 µM | SF-295 > 100 µM | UO-31 > 100 µM | HOP-92 > 100 µM | NCI-H522 > 100 µM | UACC-62 > 100 µM | SK-MEL-2 > 100 µM | K562 > 100 µM | PC-3 > 100 µM | OVCAR-3 > 100 µM | OVCAR-4 > 100 µM | UACC-257 > 100 µM | SNB-19 > 100 µM

COC(=O)C1=C(\c2ccccc2)c2ccccc2C(=O)N(C2CCCCC2)/C=C\1
inactive: ACHN 15.6 µM | OVCAR-8 38.9 µM | NCI-H23 17.1 µM | TK-10 41.3 µM | SNB-75 65.6 µM | SK-MEL-28 17.9 µM | NCI/ADR-RES 26.5 µM | SK-OV-3 74.1 µM | SF-295 28 µM | UO-31 22.6 µM | HOP-92 14.9 µM | NCI-H522 36.4 µM | SK-MEL-2 12.9 µM | K562 4.59 µM | PC-3 10.5 µM | OVCAR-3 21.7 µM | OVCAR-4 27.7 µM | UACC-257 12.5 µM | SNB-19 29 µM
